pIC50: −log10 of the molar value. Like-named read-outs stand apart in the source and are kept apart here. Values belong to the molecule of their own block, whether it stands above or below them.
System: PMA-differentiated THP-1 cells
Assay: IL-1β production in PMA-differentiated THP-1 cells stimulated with gramicidin (hTHP-1 assay containing 2% fetal bovine serum; Procedures 1 and 2)
Format: cell-based, human
Conditions: 2% fetal bovine serum
In short: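 Compound titrations in 0.37% final DMSO were added to THP-1 cells that had been plated after 16-18 h PMA treatment, 50,000 per well in 2% FBS. One hour later the cells received gramicidin (5 μM, 2 h) and were centrifuged. HTRF detected IL-1β in the collected supernatants.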

[1] = Table B2, class symbols, read-out: hTHP-1 IC50
[2] = Homo sapiens, THP-1, Table B1, class symbols, read-out: Average IC50 of compounds in hTHP-1 assay: hTHP-1 IC50
[3] = Homo sapiens, THP-1, Table B2, class symbols, read-out: hTHP-1 IC50
[4] = Homo sapiens, THP-1, Table B3, hTHP-1 assay, class symbols, read-out: IC50
[5] = Table B3, hTHP-1 assay, class symbols, read-out: IC50

pIC50 [1]: 4.52 to 5.30
SMILES: CC1(C)CCc2c1nc1c(c2NC(=O)N=S(N)(=O)c2cnc(C(C)(O)CO)s2)CCC1 (single isomer, unassigned) [Compound 201c, (S, S) or (R, S) or (S, R) or (R. R)-2-(1,2-Dihydroxypropan-2-yl)-N′-((3,3-dimethyl-1,2,3,5,6,7-hexahydrodicyclopenta [b,e]pvridin-8-yl)carbamoyl) thiazole-5-sulfonimidamide]

pIC50 [1]: 6.00 to 6.70
SMILES: Cc1c(C(F)(F)F)nc2c(c1NC(=O)N=S(N)(=O)c1cnc(C(C)(O)CO)s1)CCC2 (single isomer, unassigned) [Compound 605h, (S, R) or (R, R)-2-(1,2-Dihydroxypropan-2-yl)-N′-((3-methyl-2-(trifluoromethyl)-6,7-dihydro-5H-cyclopenta[b]pyridin-4-yl)carbamoyl) thiazole-5-sulfonimidamide]

pIC50 [1]: 6.70 to 7.40
SMILES: CCn1ccc(S(N)(=O)=NC(=O)Nc2c3c(nc4c2CCC4(C)C)CCC3)n1 (single isomer, unassigned) [Compound 697b, (R) or (S)-N′-((3,3-dimethyl-1,2,3,5,6,7-hexahydrodicyclopenta [b,e]pyridin-8-yl)carbamoyl)-1-ethyl-1H-pyrazole-3-sulfonimidamide]

pIC50 [1]: 4.52 to 5.30
SMILES: CC(C)(O)c1sc(S(N)(=O)=NC(=O)Nc2c3c(nc4c2CCC4)CCC3)cc1Cl (single isomer, unassigned) [Compound 688b, (S) or (R)-4-Chloro-N′-((1,2,3,5,6,7-hexahydrodicyclopenta [b,e]pyridin-8-yl)carbamoyl)-5-(2-hydroxypropan-2-yl)thiophene-2-sulfonimidamide]

pIC50 [1]: 4.52 to 5.30
SMILES: CC(C)c1nc(CO)c(S(N)(=O)=NC(=O)Nc2c3c(nc4c2CCC4(C)C)CCC3)s1 (single isomer, unassigned) [Compound 680a, (S) or (R)-N′-((3,3-dimethyl-1,2,3,5,6,7-hexahydrodicyclopenta [b,e]pyridin-8-yl)carbamoyl)-4-(hydroxymethyl)-2-isopropylthiazole-5-sulfonimidamide]

pIC50 (Table B1, class symbols, read-out: Average IC50 of compounds in hTHP-1 assay: hTHP-1 IC50): 4.52 to 5.30
SMILES: CC(C)(O)c1ncc(S(N)(=O)=NC(=O)Nc2c3c(nc4c2CCC4F)CCC3)s1 (single isomer, unassigned) [Compound 183c, (R,S) or (R,R)-N′-((3-fluoro-1,2,3,5,6,7-hexahydrodicyclo-penta[b,e]pyridin-8-yl)carbamoyl)-2-(2-hydroxypropan-2-yl)thiazole-5-sulfonimidamide]

pIC50 [3]: 6.00 to 6.70
SMILES: CCc1cc(F)c(S(N)(=O)=NC(=O)Nc2c3c(nc4c2CC[C@H]4C)CCC3)s1 (some centres unmarked) [Compound 720c]

More lines, now with the values behind:

SMILES: CCc1c(C2CC2)nc2c(c1NC(=O)N=S(N)(=O)c1cc(C(C)(C)O)cs1)CCC2 (centres unmarked) [Compound 181, N′-((2-cyclopropyl-3-ethyl-6,7-dihydro-5H-cyclopenta[b]pyridin-4-yl)carbamoyl)-4-(2-hydroxypropan-2-yl)thiophene-2-sulfonimidamide]
pIC50 [2]: 6.00 to 6.70

SMILES: CC(C)(O)c1sc(S(N)(=O)=NC(=O)Nc2c3c(nc4c2CCC42CC2)CCC3)cc1F (centres unmarked) [Compound 614, 4-Fluoro-5-(2-hydroxypropan-2-yl)-N′-((1′,5′,6′,7′-tetrahydro-2′H-spiro[cyclopropane-1,3′-dicyclopenta[b,e]pyridin]-8′-yl)carbamoyl)thiophene-2-sulfonimidamide]
pIC50 [3]: 6.00 to 6.70

SMILES: CC(C)n1nc(S(N)(=O)=NC(=O)Nc2c3c(nc4c2CC[C@H]4C)CCC3)cc1CO (stereo partly drawn) [Example 596, 5-(Hydroxymethyl)-1-isopropyl-N-(((R)-3-methyl-1,2,3,5,6,7-hexahydrodicyclopenta[b,e]pyridin-8-yl)carbamoyl)-1H-pyrazole-3-sulfonimidamide]
pIC50 [4]: 5.30 to 6.00

SMILES: Cc1c(C2CC2)nc2c(c1NC(=O)N=S(N)(=O)c1cc(C(C)(C)O)cs1)CCC2C (centres unmarked) [Compound 656, N′-((2-cyclopropyl-3,7-dimethyl-6,7-dihydro-5H-cyclopenta[b]pyridin-4-yl)carbamoyl)-4-(2-hydroxypropan-2-yl)thiophene-2-sulfonimidamide]
pIC50 [1]: 5.30 to 6.00

SMILES: CC(C)(O)c1cccc(S(N)(=O)=NC(=O)Nc2c3c(nc4c2CCC4(C)C)CCC3)n1 (centres unmarked) [Example 630, N′-((3,3-dimethyl-1,2,3,5,6,7-hexahydrodicyclopenta[b,e]pyridin-8-yl)carbamoyl)-6-(2-hydroxypropan-2-yl)pyridine-2-sulfonimidamide]
pIC50 [4]: 4.52 to 5.30

SMILES: CCn1cc(F)c(S(N)(=O)=NC(=O)Nc2c(C)c(C3CC3)nc3c2CCC3)n1 (centres unmarked) [Example 637, N′-((2-cyclopropyl-3-methyl-6,7-dihydro-5H-cyclopenta[b]pyridin-4-yl)carbamoyl)-1-ethyl-4-fluoro-1H-pyrazole-3-sulfonimidamide]
pIC50 [4]: 6.00 to 6.70

SMILES: Cc1c(C(F)(F)F)nc2c(c1NC(=O)N=S(N)(=O)c1cnn3c1OC[C@H](O)C3)CCC2 (stereo partly drawn) [Example 601, (6R)-6-hydroxy-N′-((3-methyl-2-(trifluoromethyl)-6,7-dihydro-5H-cyclopenta[b]pyridin-4-yl)carbamoyl)-6,7-dihydro-5H-pyrazolo[5,1-b][1,3]oxazine-3-sulfonimidamide]
pIC50 [4]: 4.52 to 5.30

SMILES: Cc1c(C(F)(F)F)nc2c(c1NC(=O)N=S(N)(=O)c1cnn3c1OCCC3)CCC2 (centres unmarked) [Example 565, N′-((3-methyl-2-(trifluoromethyl)-6,7-dihydro-5H-cyclopenta [b]pyridin-4-yl)carbamoyl)-6,7-dihydro-5H-pyrazolo[5,1-b][1,3]oxazine-3-sulfonimidamide]
pIC50 [4]: 4.52 to 5.30

SMILES: CN(C)Cc1ccc(S(N)(=O)=NC(=O)Nc2c3c(nc4c2CCC4(C)C)CCC3)cc1 (centres unmarked) [Compound 125, N′-((3,3-dimethyl-1,2,3,5,6,7-hexahydrodicyclopenta[b,e]pyridin-8-yl)carbamoyl)-4-((dimethylamino)methyl)benzenesulfonimidamide]
pIC50 [2]: 5.30 to 6.00

SMILES: CCn1cc(F)c(S(N)(=O)=NC(=O)Nc2c(C)c(C(F)(F)F)nc3c2CCC3)n1 (centres unmarked) [Example 597, 1-Ethyl-4-fluoro-N′-((3-methyl-2-(trifluoromethyl)-6,7-dihydro-5H-cyclopenta[b]pyridin-4-yl)calbamoyl)-1H-pyrazole-3-sulfonimidamide]
pIC50 [4]: 6.70 to 7.40

SMILES: CCn1ccc(S(N)(=O)=NC(=O)Nc2c(C)c(C(F)(F)F)nc3c2CCC3)n1 (single isomer, unassigned) [Example 691, (R) or (S)-1-Ethyl-N′-((3-methyl-2-(trifluoromethyl)-6,7-dihydro-5H-cyclopenta[b]pyridin-4-yl)carbamoyl)-1H-pyrazole-3-sulfonimidamide]
pIC50 [5]: 6.00 to 6.70

SMILES: CCn1cc(F)c(S(N)(=O)=NC(=O)Nc2c3c(nc4c2CC[C@@H]4C)CCC3)n1 (single isomer, unassigned) [Example 711, (R) or (S)-1-ethyl-4-fluoro-N′-(((S)-3-methyl-1,2,3,5,6,7-hexahydrodicyclopenta[b,e]pyridin-8-yl)carbamoyl)-1H-pyrazole-3-sulfonimidamide]
pIC50 [5]: 6.70 to 7.40

SMILES: CC(C)c1cc(NC(=O)N=S(N)(=O)c2cc(C(C)(C)O)cs2)c2c(n1)CCC2 (single isomer, unassigned) [Compound 182a, (S) or (R)-4-(2-Hydroxypropan-2-yl)-N′-((2-isopropyl-6,7-dihydro-5H-cyclopenta[b]pyridin-4-yl)carbamoyl) thiophene-2-sulfonimidamide]
pIC50 (Homo sapiens, THP-1, Table B2, numeric bounds, read-out: hTHP-1 IC50): < 4.52

SMILES: CCn1cc(F)c(S(N)(=O)=NC(=O)Nc2c(C)c(C3CC3)nc3c2CCC3)n1 (single isomer, unassigned) [Example 713, (R) or (S)-N′-((2-cyclopropyl-3-methyl-6,7-dihydro-5H-cyclopenta[b]pyridin-4-yl)carbamoyl)-1-ethyl-4-fluoro-1H-pyrazole-3-sulfonimidamide]
pIC50 [5]: 6.70 to 7.40

SMILES: Cc1c(C(F)(F)F)nc2c(c1NC(=O)N=S(N)(=O)c1nn(C(C)C)cc1F)CCC2 (single isomer, unassigned) [Example 790, (S) or (R)-4-fluoro-1-isopropyl-N′-((3-methyl-2-(trifluoromethyl)-6,7-dihydro-5H-cyclo-penta [b]pyridin-4-yl)carbamoyl)-1H-pyrazole-3-sulfonimidamide]
pIC50 (Table B4, class symbols, read-out: hTHP-1 IC50): 4.52 to 5.30

SMILES: CCc1c(C(F)(F)F)nc2c(c1NC(=O)N=S(N)(=O)c1nn(C(F)F)cc1F)CCC2 (centres unmarked) [Example 572, 1-(Difluoromethyl)-N′-((3-ethyl-2-(trifluoromethyl)-6,7-dihydro-5H-cyclopenta[b]pyridin-4-yl)calbamoyl)-4-fluoro-1H-pyrazole-3-sulfonimidamide]
pIC50 [4]: 5.30 to 6.00

SMILES: CC1CCc2c1nc1c(c2NC(=O)N=S(N)(=O)c2cn(C(C)C)cn2)CCC1 (centres unmarked) [Compound 660, 1-Isopropyl-N′-((3-methyl-1,2,3,5,6,7-hexahydrodicyclopenta[b,e]pyridin-8-yl)carbamoyl)-1H-imidazole-4-sulfonimidamide]
pIC50 [1]: 4.52 to 5.30

SMILES: CCn1ccc(S(N)(=O)=NC(=O)Nc2c3c(nc4c2CC[C@H]4C)CCC3)n1 (stereo partly drawn) [Compound 634, 1-Ethyl-N′-(((R)-3-methyl-1,2,3,5,6,7-hexahydrodicyclopenta[b,e]pyridin-8-yl)carbamoyl)-1H-pyrazole-3-sulfonimidamide]
pIC50 [3]: 6.70 to 7.40

SMILES: Cc1c(C2(F)CC2)nc2c(c1NC(=O)N=S(N)(=O)c1cc(C(C)(C)O)cs1)CCC2 (single isomer, unassigned) [Example 684, (S) or (R)-N′-((2-(1-fluorocyclopropyl)-3-methyl-6,7-dihydro-5H-cyclopenta[b]pyridin-4-yl)carbamoyl)-4-(2-hydroxypropan-2-yl)thiophene-2-sulfonimidamide]
pIC50 (Homo sapiens, THP-1, Table B3, hTHP-1 assay, numeric values, read-out: IC50): < 4.52
